Assays:
[1] = system: primary HSCs; experiment: Activation of primary mouse HSCs on untreated dishes (Example 1): α-SMA qRT-PCR, immunostaining, in-cell Western; format: cell-based, C57BL/6J mice
From the text: Primary HSCs were isolated from C57BL/6J mouse liver using the collagenase/pronase digestion method (see Weiskirchen et al. Fibrosis Research, 2005, vol. 117, pp. 99-113). In brief, mice were anesthetized with ketamine/xylazine (120/6 mpk) (Butler Schein, Dublin, Ohio). Abdominal and chest cavities were opened to expose the portal vein and to locate the heart and vena cava, respectively. Subsequently, a 20 G×1″ I.V. catheter (Terumo, Somerset, N.J.) was inserted into the vena cava through the right atrium and the portal vein was cut. A mouse liver was perfused at 5 mL/min with 25 mL SC-1 solution consisting of the following (per L); 8000 mg NaCl, 400 mg KCl, 88.17 mg NaH2PO4 2H2O, 120.45 mg Na2HPO4 12H2O, 2380 mg 4-(2-hydroxyethyl)-1-piperazineethanesulfonic acid (HEPES), 350 mg NaHCO3, 190 mg ethylene glycol tetraacetic acid, and 900 mg glucose, pH 7.2-7.3. The liver was, then, digested with 300 μg/mL pronase E (Roche, Mannheim, Germany) in SC-2 solution consisting of 8000 mg NaCl, 400 mg KCl, 88.17 mg NaH2PO4 2H2O, 120.45 mg Na2HPO4 12H2O, 2380 mg HEPES, 350 mg NaHCO3, and 560 mg CaCl2 2H2O, per L, pH 7.2-7.3, followed by 600 μg/mL collagenase D (Roche, Mannheim, Germany) in SC-2 solution at 5 mL/min for 5 min each. The digested liver was harvested and filtered through a 100 μm cell strainer (Fisher Scientific, Pittsburgh, Pa.). The hepatic cells were then centrifuged at 60×g for 1 min to separate non-parenchymal cells from hepatocytes. The supernatant containing non-parenchymal cells was separated based on density using a top layer of Gey's Balanced Salt Solution (GBSS), a middle layer of 10% Nycodenz (Axis-Shield, Scotland) and a bottom layer of 14.5% Nycodenz diluted in GBSS. The tube was centrifuged at 2100×g or 20 min and the primary HSCs were collected from the interface between the GBSS and 10% Nycodenz.
LX-2 cells were kindly provided by Dr. Scott Friedman at the Icahn School of Medicine at Mount Sinai (New York, N.Y.). […]

[2] = system: aHSCs; experiment: Reversion of aHSCs to iHSCs: morphology, qRT-PCR, α-SMA protein; format: cell-based, mouse
Procedure: ASTX, provided by Fuji Chemical Industry Co., Ltd. (Toyama, Japan), was prepared in DMSO as described herein in Example 1. After plated on an uncoated dish, mouse qHSCs were incubated with 25 μM ASTX during activation. aHSCs, which were prepared by culturing qHSCs on an uncoated dish for 6 d, were incubated with 25 μM ASTX for 2 or 4 more days. Also, cells were incubated with 3 μM tert-butyl hydrogen peroxide (tBHP, Thermo Scientific) for 12 h with or without 25 μM ASTX. Medium containing ASTX was replenished daily and DMSO vehicle control was always run in parallel. Human primary HSC were treated with 25 μM ASTX for 24 h, after which they were activated by 3 ng/mL of TGFβ1 (Peprotech, Rocky Hill, N.J.) for 24 h.
Total RNA extraction, cDNA synthesis, and qRT-PCR were conducted using a Bio-Rad CFX96 Real-Time system (Bio-Rad, Hercules, Calif.) as previously described (Id.). Primer sequences will be available upon request.
Whole cell lysates and human tissue protein extracts were prepared and Western blot analysis were performed as described (Id.) using antibodies against α-SMA (Sigma, St. Louis, Mo.), HDAC3 (Santa Cruz Biotechnology, Santa Cruz, Calif.), HDAC4 (Santa Cruz Biotechnology), HDAC9 (Abcam, Cambridge, Mass.; Novus Biologicals, Littleton, Colo.), Col1A1 (Sigma). β-tubulin (Santa Cruz) or glyceraldehyde 3-phosphate dehydrogenase (GAPDH) (Santa Cruz) was used as a loading control.

CC1=C(/C=C/C(C)=C/C=C/C(C)=C/C=C/C=C(C)/C=C/C=C(C)/C=C/C2=C(C)C(=O)C(O)CC2(C)C)C(C)(C)CC(O)C1=O (stereo not drawn) [ASTX, astaxanthin]
α-SMA mRNA levels ([1]; 25 μM ASTX added for 2 days during HSC activation (FIG. 6A)): significantly reduced | decrease of α-SMA protein (in-cell Western) ([1]; ASTX treatment at days 0, 2 and 4 until day 6, vs control without ASTX (FIG. 6C)): 30-40% | α-SMA protein levels (immunostaining) ([1]; day 4 of incubation, ASTX for 2 days (FIG. 6B)): markedly decreased | cell morphology (lipid droplets) ([2]; aHSCs treated with ASTX for 2 or 4 d (FIG. 9A)): reappearance of cytoplasmic lipid droplets | α-SMA and Col1A1 mRNA ([2]; aHSCs treated with ASTX for 2 d (FIG. 9B)): significantly decreased | ADRP mRNA levels, control vs ASTX-treated ([2]; aHSCs, ASTX for 2 d (FIG. 9D)): no significant difference | LRAT mRNA ([2]; aHSCs, ASTX for 2 d (FIG. 9D)): markedly increased | SREBP1c mRNA levels ([2]; aHSCs, ASTX for 2 d (FIG. 9D)): significantly decreased | α-SMA protein ([2]; aHSCs, day 8, ASTX for 2 d (FIG. 9C)): significantly decreased

Reference: patent US20160287534A1, “METHODS FOR REVERSING FIBROSIS” (The University of Connecticut, priority 2015, published 2016)
